Reference: patent US7601746B2 (Shionogi & Co., Ltd., priority 2003, dated 2009)

Each compound was assayed against T1, human TPO receptor (hTPOR) (Homo sapiens, UniProt P40238) (assay: Thrombopoietic activity: proliferation of TPO dependent BaF/hTPOR cells (WST-1, absorbance at 450 nm)). Conditions: 20 h + 4 h WST-1, ED50 = half concentration of the concentration showing the maximum thrombopoietic activity, Table 1.
T1 construct: expressed in transfected cells; host or cells: BaF-B03 (murine IL-3 dependent cell line)
T1 sequence (P40238 26-635): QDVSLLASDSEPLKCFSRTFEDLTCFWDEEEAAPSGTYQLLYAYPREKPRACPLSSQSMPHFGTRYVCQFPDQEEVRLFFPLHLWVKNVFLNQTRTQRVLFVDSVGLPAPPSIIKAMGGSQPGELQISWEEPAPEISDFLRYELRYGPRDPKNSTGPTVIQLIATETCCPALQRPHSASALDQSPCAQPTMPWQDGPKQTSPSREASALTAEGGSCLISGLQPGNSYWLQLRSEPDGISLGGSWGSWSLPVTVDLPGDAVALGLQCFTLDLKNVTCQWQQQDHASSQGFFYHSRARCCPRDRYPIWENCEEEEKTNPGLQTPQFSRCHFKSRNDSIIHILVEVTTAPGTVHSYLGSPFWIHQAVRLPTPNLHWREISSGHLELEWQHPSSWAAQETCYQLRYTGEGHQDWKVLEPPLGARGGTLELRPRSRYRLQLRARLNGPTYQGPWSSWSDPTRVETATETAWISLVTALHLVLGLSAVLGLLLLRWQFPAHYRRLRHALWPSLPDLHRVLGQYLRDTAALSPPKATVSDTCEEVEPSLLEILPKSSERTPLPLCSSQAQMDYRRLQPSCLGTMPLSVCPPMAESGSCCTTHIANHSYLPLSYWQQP
Format: cell-based
Method in brief: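 Proliferation read-out: WST-1 absorbance at 450 nm after 20 h compound exposure plus 4 h reagent, using IL-3-deprived BaF/hTPOR cells (5×10^4 per well) dependent on human TPO receptor signalling. ED50 defined as half the concentration producing maximal activity.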

Question: For `CCC(OCCC(C)C)c1cccc(-c2csc(NC(=O)c3cc(Cl)c(C=C(C)C(=O)O)c(Cl)c3)n2)c1F` (centres unmarked) [Compound B74, 3-[2,6-dichloro-4-(4-{2-fluoro-3-[1-(3-methylbutyloxy)proptyl]phenyl}thiazol-2-ylcarbamoyl)phenyl]-2-methylacrylic acid], which EC50 is on record?
Answer: 0.8 nM

Question: For `CCCCCOC(CCC)c1cccc(-c2csc(NC(=O)c3cc(F)c(C=C(C)C(=O)O)c(F)c3)n2)c1F` (centres unmarked) [Compound B36, 3-(2,6-difluoro-4-{4-[2-fluoro-3-(1-n-pentyloxybutyl)phenyl]thiazol-2-ylcarbamoyl}phenyl)-2-methylacrylic acid], which EC50 is on record?
Answer: 0.63 nM

Question: For `CCCCOCCCc1cccc(-c2csc(NC(=O)c3cc(F)c(/C=C(\C)C(=O)O)c(F)c3)n2)c1OC` [Compound B419, (E)-3-(4-{4-[3-(3-butyloxypropyl)-2-methyloxyphenyl]thiazol-2-ylcarbamoyl}-2,6-difluorophenyl)-2-methylacrylic acid], which EC50 is on record?
Answer: 14.6 nM

Question: Which EC50 does the source give for `COC(=Cc1c(F)cc(C(=O)Nc2nc(-c3cccc(COCC(C)(C)C)c3OC)cs2)cc1F)C(=O)O` (stereo in doubt) [Compound B2020, (E)-3-(4-{4-[3-(2,2-dimethylpropyloxymethyl)-2-methyloxyphenyl]thiazol-2-ylcarbamoyl}-2,6-difluorophenyl)-2-methyloxyacrylic acid] here?
Answer: 10.9 nM

Question: With `CCCCCCCCOC(C)c1cccc(-c2csc(NC(=O)c3cc(F)c(C=C(C)C(=O)O)c(F)c3)n2)c1F` (centres unmarked) [Compound B30, 3-(2,6-difluoro-4-{4-[2-fluoro-3-(1-n-octyloxyethyl)phenyl]thiazol-2-ylcarbamoyl}phenyl)-2-methylacrylic acid] as the compound, how does the EC50 read?
Answer: 0.78 nM

Question: With `CCOCCCc1cccc2c1CCc1sc(NC(=O)c3cc(Cl)c(C=C(C)C(=O)O)c(Cl)c3)nc1-2` [Compound A10, 3-{2,6-dichloro-4-[4,5-dihydro-6-(3-ethyloxypropyl)naphtho[1,2-d]thiazol-2-ylcabamoyl]phenyl}-2-methylacrylic acid] as the compound, how does the EC50 read?
Answer: 1.2 nM

Question: How did the EC50 turn out when `CCCCCCC(OC)c1cccc(-c2csc(NC(=O)c3cc(Cl)c(C=C(C)C(=O)O)c(Cl)c3)n2)c1F` (centres unmarked) [Compound B68, 3-(2,6-dichloro-4-{4-[2-fluoro-3-(1-methyloxyheptyl)phenyl]thiazol-2-ylcarbamoyl}phenyl)-2-methylacrylic acid] was run?
Answer: 0.82 nM

Question: With `CCCOCCCc1cccc(-c2csc(NC(=O)c3cc(F)c(/C=C(\C)C(=O)O)c(F)c3)n2)c1OC` [Compound B380, (E)-3-(2,6-difluoro-4-{4-[2-methyloxy-3-(3-propyloxypropyl)phenyl]thiazol-2-ylcarbamoyl}phenyl)-2-methylacrylic acid] as the compound, how does the EC50 read?
Answer: 23.2 nM

Question: How did the EC50 turn out when `CC(=Cc1c(F)cc(C(=O)Nc2nc(-c3cccc(CCCOCCC4CCCC4)c3F)cs2)cc1F)C(=O)O` [Compound B44, 3-[4-(4-{3-[3-(2-cyclopentylethyloxy)propyl]-2-fluorophenyl}thiazol-2-ylcarbamoyl}-2,6-difluorophenyl)-2-methylacrylic acid] was run?
Answer: 1.27 nM

Question: Which EC50 does the source give for `COc1c(COCCCC(C)C)cccc1-c1csc(NC(=O)c2cc(F)c(/C=C(\C)C(=O)O)c(F)c2)n1` [Compound B1938] here?
Answer: 12.7 nM

Question: How did the EC50 turn out when `CCCC(CCC)(OC)c1cccc(-c2csc(NC(=O)c3cc(F)c(C=C(C)C(=O)O)c(F)c3)n2)c1F` [Compound B8] was run?
Answer: 4 nM

Question: With `CCCC(CCc1cccc2c1CCc1sc(NC(=O)c3cc(F)c(C=C(C)C(=O)O)c(F)c3)nc1-2)OC` (centres unmarked) [Compound A1, 3-{2,6-difluoro-4-[4,5-dihydro-6-(3-methyloxyhexyl)naphtho[1,2-d]thiazol-2-ylcarbamoyl]phenyl}-2-methylacrylic acid] as the compound, how does the EC50 read?
Answer: 2.27 nM

Question: For `CO/C(=C\c1c(Cl)cc(C(=O)Nc2nc(-c3cccc(COCC(C)(C)C)c3OC)cs2)cc1Cl)C(=O)O` [Compound B2022, (Z)-3-(2,6-dichloro-4-{4-[3-(2,2-dimethylpropyloxymethyl)-2-methyloxyphenyl]thiazol-2-ylcarbamoyl}phenyl)-2-methyloxyacrylic acid], which EC50 is on record?
Answer: 15.6 nM

Question: `COc1c(CCCOCC2CC2)cccc1-c1csc(NC(=O)c2cc(Cl)c(/C=C(\C)C(=O)O)c(Cl)c2)n1` [Compound B1945, (E)-3-(2,6-dichloro-4-{4-[3-(3-cyclopropylmethyloxypropyl)-2-methyloxyphenyl]thiazol-2-ylcarbamoyl}phenyl)-2-methylacrylic acid] was tested. Which EC50 did it give?
Answer: 19.3 nM

Question: How did the EC50 turn out when `CCC(CC)COCCCc1cccc(-c2csc(NC(=O)c3cc(F)c(/C=C(\C)C(=O)O)c(F)c3)n2)c1OC` [Compound B1848, (E)-3-[4-(4-{3-[3-(2-ethylbutyloxy)propyl]-2-methyloxyphenyl}thiazol-2-ylcarbamoyl)-2,6-difluorophenyl]-2-methylacrylic acid] was run?
Answer: 15.9 nM

Question: Which EC50 does the source give for `COc1c(-c2csc(NC(=O)c3cc(Cl)c(/C=C(\C)C(=O)O)c(Cl)c3)n2)cccc1C(CC(C)(C)C)OC` (centres unmarked) [Compound B1054, (E)-3-(2,6-dichloro-4-{4-[2-methyloxy-3-(1-methyloxy-3,3-dimethylbutyl)phenyl]thiazol-2-ylcarbamoyl}phenyl)-2-methylacrylic acid] here?
Answer: 19.9 nM

Question: How did the EC50 turn out when `COc1c(CCCOCC2CCCC2)cccc1-c1csc(NC(=O)c2cc(F)c(/C=C(\C)C(=O)O)c(F)c2)n1` [Compound B1948, (E)-3-(4-{4-[3-(3-cyclopentylmethyloxypropyl)-2-methyloxyphenyl]thiazol-2-ylcarbamoyl}-2,6-difluorophenyl)-2-methylacrylic acid] was run?
Answer: 10.9 nM

Question: `CC(=Cc1c(F)cc(C(=O)Nc2nc3c(s2)CCc2c(CCC(C)(C)C)cccc2-3)cc1F)C(=O)O` [Compound A3, 3-{2,6-difluoro-4-[4,5-dihydro-6-(3,3-dimethylbutyl)naphtho[1,2-d]thiazol-2-ylcabamoyl)phenyl]-2-methylacrylic acid] was tested. Which EC50 did it give?
Answer: 4 nM

Question: `CCCCCCOCc1cccc(-c2csc(NC(=O)c3cc(F)c(/C=C(\C)C(=O)O)c(F)c3)n2)c1OC` [Compound B1992, (E)-3-{2,6-difluoro-4-[4-(3-hexyloxymethyl-2-methyloxyphenyl)thiazol-2-ylcarbamoyl]phenyl}-2-methylacrylic acid] was tested. Which EC50 did it give?
Answer: 13.1 nM

Question: How did the EC50 turn out when `CCOCCCCOC(c1cccc(-c2csc(NC(=O)c3cc(F)c(C=C(C)C(=O)O)c(F)c3)n2)c1F)C1CCCCC1` (centres unmarked) [Compound B21, 3-[4-(4-{3-[1-cyclohexyl-1-(4-ethyloxybutyloxy)methyl]-2-fluorophenyl]thiazol-2-ylcarbamoyl}-2,6-difluorophenyl)-2-methylacrylic acid] was run?
Answer: 0.67 nM

Question: `CCCCCOCc1cccc(-c2csc(NC(=O)c3cc(F)c(C=C(C)C(=O)O)c(F)c3)n2)c1F` [Compound B33, 3-(2,6-difluoro-4-{4-[2-fluoro-3-(n-pentyloxymethyl)phenyl]thiazol-2-ylcarbamoyl}phenyl)-2-methylacrylic acid] was tested. Which EC50 did it give?
Answer: 3.33 nM

Same assay, conditions: 20 h + 4 h WST-1, ED50 = half concentration of the concentration showing the maximum thrombopoietic activity, Table 2

Question: With `CCCCCOCCc1cccc(-c2csc(NC(=O)c3cc(F)c(/C=C(\C)C(=O)O)c(F)c3)n2)c1OC` [Compound B1924, (E)-3-(2,6-difluoro-4-{4-[2-methyloxy-3-(2-pentyloxyethyl)phenyl]thiazol-2-ylcarbamoyl)phenyl)-2-methylacrylic acid] as the compound, how does the EC50 read?
Answer: 20.6 nM

Question: `CCCOCCCc1cccc(-c2csc(NC(=O)c3cc(F)c(/C=C(\C)C(=O)O)c(F)c3)n2)c1OC` [Compound B380, (E)-3-(2,6-difluoro-4-{4-[2-methyloxy-3-(3-propyloxypropyl)phenyl]thiazol-2-ylcarbamoyl}phenyl)-2-methylacrylic acid] was tested. Which EC50 did it give?
Answer: 23.2 nM

Question: How did the EC50 turn out when `CO/C(=C\c1c(F)cc(C(=O)Nc2nc(-c3cccc(COCCC(C)(C)C)c3OC)cs2)cc1F)C(=O)O` [Compound B1935, (Z)-3-(4-{4-[3-(3,3-dimethylbutyloxymethyl)-2-methyloxyphenyl]thiazol-2-ylcarbamoyl}-2,6-difluorophenyl)-2-methyloxyacrylic acid] was run?
Answer: 25.4 nM

Question: For `CO/C(=C\c1c(F)cc(C(=O)Nc2nc(-c3cccc(CCCOCC(C)(C)C)c3)c(OC)s2)cc1F)C(=O)O` [Compound B1900, (Z)-3-[4-(4-{3-[3-(2,2-dimethylpropyloxy)propyl]phenyl}-5-methyloxythiazol-2-ylcarbamoyl)-2,6-difluorophenyl]-2-methyloxyacrylic acid], which EC50 is on record?
Answer: 23.2 nM

Question: Which EC50 does the source give for `COc1c(OCCC2CCCCC2)cccc1-c1csc(NC(=O)c2cc(Cl)c(/C=C(\C)C(=O)O)c(Cl)c2)n1` [Compound B1918] here?
Answer: 21 nM

Question: With `CO/C(=C\c1c(F)cc(C(=O)Nc2nc(-c3cccc(CCCOCC(C)(C)C)c3F)c(OC)s2)cc1F)C(=O)O` [Compound B1904, (Z)-3-[4-(4-{3-[3-(2,2-dimethylpropyloxy)propyl]-2-fluorophenyl}-5-methyloxythiazol-2-ylcarbamoyl)-2,6-difluorophenyl]-2-methyloxyacrylic acid] as the compound, how does the EC50 read?
Answer: 24.6 nM

Question: Which EC50 does the source give for `CCCCOCCc1cccc(-c2csc(NC(=O)c3cc(Cl)c(/C=C(\C)C(=O)O)c(Cl)c3)n2)c1OC` [Compound B1836, (E)-3-(4-{4-[3-(2-butyloxyethyl)-2-methyloxyphenyl]thiazol-2-ylcarbamoyl}-2,6-dichlorophenyl)-2-methylacrylic acid] here?
Answer: 21 nM

Question: `CO/C(=C\c1c(Cl)cc(C(=O)Nc2nc(-c3cccc(COCCCC(C)C)c3OC)cs2)cc1Cl)C(=O)O` [Compound B1941] was tested. Which EC50 did it give?
Answer: 24.1 nM
